{"source": "patent US20230364052A1", "about": "“COMPOSITION AND METHOD FOR TREATING AUTISM” (ZELIRA THERAPEUTICS OPERATIONS PTY LTD, priority 2017, published 2023)", "data": [{"system": "patients with ASD diagnosis according to DSM-5", "assay": "Retrospective review of ASD patients treated with Cannabis extracts; clinical response by CGI-I Scale", "format": "in vivo", "settings": "66.6% of the ASD patients, treated before Cannabis therapy", "experimental": "A retrospective review of patients seen between June 2016 and March 2017 with ASD diagnosis according to DSM-5 (persistent deficits in social communication and interaction; restricted, repetitive patterns of behaviour, interests, or activities; symptoms present in the early developmental period; cause clinically significant impairment in social, occupational, or other areas of current functioning; not explained by intellectual disability nor global developmental delay) who were treated with Cannabis extracts for at least a 12-week period was completed. Demographic/clinical data, neuroimaging/EEG studies, vision, audition, genetic, and metabolic tests, parental/school/neuropsychological reports were reviewed.\nThe patients were administered with the cannabinoids sublingually (sublingual drops or “rice grain” method—see Example 1) twice daily (BID) for the duration of their treatment. The Cannabis extracts were obtained from the Moby Dick, Sharck, Durga mata or Nebula strains of Cannabis. For 10 out of the 21 patients included in the study, the total daily dosage of CBD and THC (measured by HPLC) and CBD:THC ratio were calculated and discussed further below.\nThe initial severity of symptoms presenting in the patients was assessed according to the criteria provided in the DSM-5, and are shown in FIG. 3.\nThe selected patients consisted of twenty (20) children and 1 adult (Mean age: 9 years, 10 month (range: 26 mo-22 yo), 15 males).\nMean follow-up after starting Cannabis therapy was 7.6 mo (range: 3-12 months). According to Cannabis strain, 71.5% of patients received balanced CBD:THC extracts; 19.0% high-CBD (e.g. Table 3; Formulations 1-3), and 9.5% high-THC extracts (e.g. Table 3; Formulation 6). The administered daily dose of CBD and THC was measured in 10 patients; 9 of them received […] and one high-THC extracts (Tables 2 and 3).", "values": [{"molecule": "O=C1CCc2ccc(OCCCCN3CCN(c4cccc(Cl)c4Cl)CC3)cc2N1", "note": "[aripiprazole]", "response to previous treatment": "without good response and/or with undesirable adverse events"}, {"molecule": "COC(=O)C(c1ccccc1)C1CCCCN1", "note": "(stereo not shown) [methylphenidate]", "response to previous treatment": "without good response and/or with undesirable adverse events"}, {"molecule": "OCCOCCN1CCN(C2=Nc3ccccc3Sc3ccccc32)CC1", "note": "[quetiapine]", "response to previous treatment": "without good response and/or with undesirable adverse events"}, {"molecule": "Cc1nc2n(c(=O)c1CCN1CCC(c3noc4cc(F)ccc34)CC1)CCCC2", "note": "[risperidone]", "response to previous treatment": "without good response and/or with undesirable adverse events"}]}]}
